Assay results: US20080026996A1, “Selective Vpac2 Receptor Reptide Agonists” (ELI LILLY AND COMPANY, priority 2004, published 2008)
Where two headings read alike, the source gives them in different places. Where a SMILES comes first, the peptide text is derived from it. Where no end group is shown, it is not given here. [ ]: non-standard residue; d: D form. The star is where a group is joined. Hexanoyl = CCCCCC(=O)*; Aib = CC(C)(N)C(=O)O

Tests used:
[1] = Rat serum stability studies (remaining active peptide by DiscoveRx cAMP on CHO-VPAC2 cells); type: in vitro ADME
Procedure, shortened: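 EC50 from a DiscoveRx cAMP read-out on CHO-VPAC2 cells indexes how much peptide stays active after 18 h in rat serum at 37° C without aprotinin, against an aprotinin-protected 4° C aliquot.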

rat VPAC1 receptor = molecular target: T1, rat VPAC1 receptor (Rattus norvegicus, UniProt P30083); assay: DiscoveRx in vitro potency, CHO-PO cells transiently transfected with rat VPAC 1 receptor DNA; type: cell-based; parameters: expressed in transfected cells; host or cells: CHO-PO, transient
T1 sequence (P30083 31-459): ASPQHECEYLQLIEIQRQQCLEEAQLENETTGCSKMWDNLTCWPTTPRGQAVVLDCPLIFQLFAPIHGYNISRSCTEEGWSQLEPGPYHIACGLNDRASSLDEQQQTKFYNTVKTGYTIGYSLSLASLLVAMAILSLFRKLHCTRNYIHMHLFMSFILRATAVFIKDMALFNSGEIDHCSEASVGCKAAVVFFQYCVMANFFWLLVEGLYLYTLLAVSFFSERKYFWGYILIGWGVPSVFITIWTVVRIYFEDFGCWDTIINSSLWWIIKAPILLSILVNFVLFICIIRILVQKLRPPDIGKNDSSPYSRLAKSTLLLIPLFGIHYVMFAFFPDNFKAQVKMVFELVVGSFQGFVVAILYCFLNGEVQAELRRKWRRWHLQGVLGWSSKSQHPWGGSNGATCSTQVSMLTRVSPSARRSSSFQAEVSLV
Protocol: Also, the cells are washed twice. […] The stimuli are present for 30 minutes. Then, the assay buffer is gently removed.

human VPAC2 = molecular target: T2, human VPAC2 (Homo sapiens, UniProt P41587); assay: DiscoveRx cAMP in vitro potency, CHO-S cell line stably expressing human VPAC2 receptor; type: cell-based; conditions: cAMP generation; mean of two independent runs
T2 construct: expressed in transfected cells
T2 sequence (P41587 24-438): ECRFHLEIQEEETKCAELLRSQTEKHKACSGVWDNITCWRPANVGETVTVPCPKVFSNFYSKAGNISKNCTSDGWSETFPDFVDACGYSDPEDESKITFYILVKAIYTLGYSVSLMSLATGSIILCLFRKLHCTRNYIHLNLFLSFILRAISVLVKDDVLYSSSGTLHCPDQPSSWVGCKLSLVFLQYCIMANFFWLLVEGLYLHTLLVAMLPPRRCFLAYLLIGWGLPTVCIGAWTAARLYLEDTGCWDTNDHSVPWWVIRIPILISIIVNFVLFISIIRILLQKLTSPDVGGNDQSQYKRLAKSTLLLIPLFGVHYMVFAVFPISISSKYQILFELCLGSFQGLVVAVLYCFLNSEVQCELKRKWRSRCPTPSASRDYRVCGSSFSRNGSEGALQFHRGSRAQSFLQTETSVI
Protocol: Also, the cells are washed twice. The cells are incubated in assay buffer plus IBMX for 15 minutes at room temperature. […] The stimuli are present for 30 minutes. Then, the assay buffer is gently removed. […] At day 3, the assay described above for the VPAC2 receptor cell line is performed.

rat PAC1 receptor = molecular target: T3, rat PAC1 receptor (Rattus norvegicus, UniProt P32215); assay: Adenylate cyclase assay on recombinant rat PAC1 receptor expressed in CHO cells; type: biochemical
T3 construct: expressed in transfected cells; host or cells: CHO cells, crude membranes
T3 sequence (P32215 20-523): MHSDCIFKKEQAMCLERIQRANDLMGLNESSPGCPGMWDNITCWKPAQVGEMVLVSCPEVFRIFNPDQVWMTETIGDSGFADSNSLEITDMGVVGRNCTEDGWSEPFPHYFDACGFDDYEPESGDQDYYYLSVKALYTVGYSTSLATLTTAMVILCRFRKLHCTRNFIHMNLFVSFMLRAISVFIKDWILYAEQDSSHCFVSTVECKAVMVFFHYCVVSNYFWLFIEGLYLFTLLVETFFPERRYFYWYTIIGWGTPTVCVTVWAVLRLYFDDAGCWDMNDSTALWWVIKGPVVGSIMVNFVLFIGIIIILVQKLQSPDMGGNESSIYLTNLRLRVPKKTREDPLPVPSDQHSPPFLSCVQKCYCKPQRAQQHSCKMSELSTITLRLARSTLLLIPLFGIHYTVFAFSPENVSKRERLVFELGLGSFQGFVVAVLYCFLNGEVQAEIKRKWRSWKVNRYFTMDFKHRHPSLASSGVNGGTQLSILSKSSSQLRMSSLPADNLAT
Protocol: All studies are performed on crude membranes prepared from three different cell cultures expressing the different recombinant receptors, using methodology that is known in the literature. Duplicate values are obtained for each assay.

[2] = Pharmacokinetic assay: active peptide levels in rat plasma after IV injection
Normal Wistar rats = assay: Delayed IVGTT; type: in vivo, rat; conditions: 10 μg/kg iv, glucose 30 minutes later
Protocol: Delayed IVGTT: Perform IVGTT as described above, making the following changes. After the initial blood sample, compound or vehicle is injected i.v. Glucose is injected i.v. 30 minutes later in a separate injection. Blood samples are taken immediately prior to administration of the compound, at 15 minutes after administration of the compound, and at 30 minutes after administration of the compound. The sample at 30 minutes after administration of the compound is taken immediately prior to glucose administration. Blood samples are drawn 2, 4, 6, 10, and 30 minutes after giving glucose (i.e. 32, 34, 36, 40 and 60 minutes after compound administration). The blood samples at 15 and 60 minutes are not essential to the study and not always taken. Aprotinin is added to the blood sample (250 kIU/ml blood). The serum is then analyzed for glucose and insulin using standard methodologies.
The assay uses a formulated and calibrated peptide stock in PBS. Normally, this stock is a prediluted 100 μM stock. However, a more concentrated stock with approximately 1 mg agonist per mL is used. The specific concentration is always known.

conscious Wistar rats = assay: Oral glucose tolerance test (OGTT); type: in vivo, rat; conditions: for Effects on glucose, AUC(0-135 min) / Effects on insulin, AUC(0-75 min): OGTT (15 min)
Protocol: Oral Glucose Tolerance Test (OGTT):
The effect of a selective VPAC2 receptor peptide agonist (P31) on plasma insulin and glucose is evaluated during OGTT in conscious Wistar rats. The maximal dose of agonist is 10 μg/kg. Since the peptide is given intravenously and has a very short half-life, a delay between glucose and compound administrations is applied.

[3] = Wistar, rat, plasma, iv, 10 ug/kg

For “Hexanoyl-HSDAVFTDNYTRLR[Aib]QVAAK[Aib]YLQSIKNKRYGGPSSGAPPPS [Agonist P264]”, the “Rat Serum Stability (Estimated purity in % after 72 hours)” value [1] was 0.9% and the “Rat Serum Stability (estimated purity in % after 18 hours)” value [1] was 19.22%.

In the case of CCCCCC(=O)N[C@@H](Cc1c[nH]cn1)C(=O)N[C@@H](CO)C(=O)N[C@@H](CC(=O)O)C(=O)N[C@@H](C)C(=O)N[C@H](C(=O)N[C@@H](Cc1ccccc1)C(=O)N[C@H](C(=O)N[C@@H](CC(=O)O)C(=O)N[C@@H](CC(N)=O)C(=O)N[C@@H](Cc1ccc(O)cc1)C(=O)N[C@H](C(=O)N[C@@H](CCCNC(=N)N)C(=O)N[C@@H](CC(C)C)C(=O)N[C@@H](CCCNC(=N)N)C(=O)NC(C)(C)C(=O)N[C@@H](CCC(N)=O)C(=O)N[C@@H](CC(C)C)C(=O)N[C@@H](C)C(=O)N[C@@H](C)C(=O)NC(C)(C)C(=O)N[C@@H](CCCCN)C(=O)N[C@@H](Cc1ccc(O)cc1)C(=O)N[C@@H](CC(C)C)C(=O)N[C@@H](CCC(N)=O)C(=O)N[C@@H](CO)C(=O)N[C@H](C(=O)N[C@@H](CCCCN)C(=O)N[C@@H](CC(N)=O)C(=O)N[C@@H](CCCCN)C(=O)NCC(=O)NCC(=O)N1CCC[C@H]1C(=O)N[C@@H](CO)C(=O)N[C@@H](CO)C(=O)NCC(=O)N[C@@H](C)C(=O)N1CCC[C@H]1C(=O)N1CCC[C@H]1C(=O)N1CCC[C@H]1C(=O)N[C@@H](CO)C(=O)O)[C@@H](C)CC)[C@@H](C)O)[C@@H](C)O)C(C)C [Agonist P292] (Hexanoyl-HSDAVFTDNYTRLR[Aib]QLAA[Aib]KYLQSIKNKGGPSSGAPPPS-OH; C-terminus assumed), the “Rat Serum Stability (estimated purity in % after 18 hours)” value [1] is reported as 33.43%.

With “Hexanoyl-HSDAVFTDNYTRLLAKLALQKYLQSIKNKRYGGPSSGAPPPS [Agonist P119]” the EC50 (rat VPAC1 receptor) was 0.07 nM and the EC50 (human VPAC2) was 0.34 nM.

With “H-MHSDAVFTDNYTRLRKQVAAKKYLQSIKNKRYGGPSSGAPPPS [Agonist P104]” the “Rat Serum Stability (estimated purity in % after 18 hours)” value ([1]; 10 μM peptide in rat serum, 37° C., 18 hours, versus 4° C. aliquot with aprotinin) was 1.01%, the “potency ratio compared to PACAP-27” value (rat PAC1 receptor) was greater than 1000 and the AUC(0-t) [2, 3] was 0.355 nM·h. For the same compound, the Cmax [2, 3] was 3.19 nM, the half-life [2, 3] was 2.35 min and the “Exposure (10 μg/kg); clearance in μg/(min * nM * kg)” value ([2]; rat plasma, 10 μg/kg i.v.) was 0.87 µg/min/nM/kg. The “Exposure (10 μg/kg, Vdist in μg/(nM * kg))” value ([2]; rat plasma, 10 μg/kg i.v.) was 2.64 µg/nM/kg.

With “Hexanoyl-HSDAVFTDNYTRLRKQVAAKKYLQSIKNKRYGGPSSGAPPPS [Agonist P31]” the EC50 (rat VPAC1 receptor) was 0.44 nM, the Effects on glucose (Normal Wistar rats) was “None” and the “Effects on insulin, AUC(0-10 min)” value (Normal Wistar rats) was “+91% AUC(0-10 min)”. The EC50 (human VPAC2) was 0.11 nM, the “Effects on glucose, AUC(0-135 min)” value (conscious Wistar rats; #1, 10 μg/kg iv) was −22% AUC(0-135 min) and the “Effects on insulin, AUC(0-75 min)” value (conscious Wistar rats; #1, 10 μg/kg iv) was “+71% AUC(0-75 min)”. For the same compound, the “Effects on glucose, AUC(0-135 min)” value (conscious Wistar rats; #2, 0.5 μg/kg iv) was −5% AUC(0-135 min), the “Effects on insulin, AUC(0-75 min)” value (conscious Wistar rats; #2, 0.5 μg/kg iv) was “+16% AUC(0-75 min)” and the “Effects on glucose, AUC(0-135 min)” value (conscious Wistar rats; #2, 10 μg/kg iv) was −2% AUC(0-135 min). For the same compound, the “Effects on insulin, AUC(0-75 min)” value (conscious Wistar rats; #2, 10 μg/kg iv) was “+17% AUC(0-75 min)”, the “Effects on insulin, AUC(0-90 min)” value (conscious Wistar rats; OGTT (30 min), 10 μg/kg iv) was “+85% AUC(0-90 min)” and the “Effects on glucose, AUC(0-150 min)” value (conscious Wistar rats; OGTT (30 min), 10 μg/kg iv, (NS)) was −1% AUC(0-150 min).

With “Hexanoyl-HSDAVFTDNYTRLR[Aib]QVAA[Aib]KYLQSIKNKRYGGPSSGAPPPS [Agonist P261]” the “Rat Serum Stability (estimated purity in % after 18 hours)” value [1] was 27.06%.
